The values below come from patent US20080306268A1, “Crystalline clopidogrel hydrobromide and processes for preparation thereof” (Teva Pharmaceuticals USA, Inc. for Barbados, priority 2004, published 2008).

For series [1] the following is noted: opened beaker, room temperature, 4 days. How it is done:
Form I may also be prepared by exposing a hygroscopic crystalline clopidogrel hydrobromide to air, preferably for at least about 24 hours. In a preferred embodiment, the clopidogrel hydrobromide exposed is Form II, discussed below.

For series [2] the following is noted: pure crystalline hydrate, purity at least about 99% by HPLC.
The subject of a further series is platelet aggregation. The note with it: 75 mg base equivalent versus 325 mg aspirin; cited from earlier work.
For series [3] the following is noted: compared with aspirin; cited from earlier work.

Where a name gives a salt, the structure may show the parent alone.

Regarding `COC(=O)[C@H](c1ccccc1Cl)N1CCc2sccc2C1` [Form II, clopidogrel hydrobromide], the “crystalline form after exposure to air” value in series [1] was “giving clopidogrel hydrobromide form I”.
In the case of `COC(=O)[C@H](c1ccccc1Cl)N1CCc2sccc2C1` [clopidogrel hydrobromide hydrate], the hygroscopicity entry in series [2] is given as “only minor hygroscopicity”.
Consider `COC(=O)[C@H](c1ccccc1Cl)N1CCc2sccc2C1` [clopidogrel, methyl (+)-(S)-∝-(o-chlorophenyl)-6,7-dihydrothieno[3,2-c]pyridine-5(4H)-acetate], for which the “effectiveness in blocking platelet aggregation versus aspirin” value with platelet aggregation is given as “more effective in blocking platelet aggregation than aspirin”. The “gastrointestinal bleeding versus aspirin” value in series [3] is reported as “much less gastrointestinal bleeding than aspirin”.
